Results: paper PMC6538953, “Metal Ions Activate the Human Taste Receptor TAS2R7” (Chemical Senses, 2019)
Substitutions are numbered along the chain they refer to.

Columns and labels:
[1] = target: T1, human TAS2R7 E271^7.39 to glutamine mutant (Homo sapiens, UniProt Q9NYW3, E271Q); assay: Calcium mobilization assay, TAS2R7 mutant E271Q; format: cell-based; settings: 20 mM metal ions except 0.16 mM Al2(SO4)3; cromolyn 10 mM; Figure 6C
T1 construct: signal peptide: first 45 amino acid residues of rat somatostatin receptor 3 (N); expressed in transfected cells; host or cells: HEK293 PEAKrapid (ATCC CRL-2828), transient, co-transfected with Gα16-gust44
T1 sequence (Q9NYW3 1-318 E271Q): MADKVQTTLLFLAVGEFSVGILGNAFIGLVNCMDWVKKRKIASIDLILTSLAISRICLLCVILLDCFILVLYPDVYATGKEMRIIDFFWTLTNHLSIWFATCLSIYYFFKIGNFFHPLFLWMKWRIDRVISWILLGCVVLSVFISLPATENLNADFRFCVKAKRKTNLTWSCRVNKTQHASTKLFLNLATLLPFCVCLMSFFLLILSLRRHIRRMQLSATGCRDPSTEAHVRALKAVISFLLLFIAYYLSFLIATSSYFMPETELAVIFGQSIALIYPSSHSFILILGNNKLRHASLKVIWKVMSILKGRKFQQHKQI
Source text: (§1) The coding sequences of human TAS2Rs were amplified from human genomic DNA, then subcloned into pcDNA3.1(+) vector, with the herpes simplex virus glycoprotein D epitope (HSV) at the C-terminal and a signal peptide consisting of the first 45 amino acid residues of the rat somatostatin receptor 3 at the N-terminal, essentially as described previously ([Bufe et al. 2002]). Point mutations in human TAS2R7 (NCBI Reference Sequence: NP_076408.1) were constructed by site-directed mutagenesis. All the constructs were confirmed by Sanger sequencing.
(§2) Human embryonic kidney 293 (PEAKrapid, ATCC # CRL-2828) cells were cultured in Opti-MEM medium with 4% fetal bovine serum. […] After incubation, cells were washed 2 times with HBSS (including 10 mM HEPES), incubated in the dark for another 30 min, and then washed with assay solution once more before running the assay using a FlexStation III reader. Relative fluorescence units (excitation at 494 nm, emission at 516 nm, and auto cutoff at 515 nm) were read every 2 s for 2 min. Calcium mobilization traces were recorded.
(§3) Calcium mobilization traces were raw data obtained from single wells. Changes in fluorescence (ΔF) were calculated as the peak fluorescence minus baseline fluorescence ([Lei et al. 2015]). The calcium mobilization was quantified as the percentage of change (ΔF) relative to baseline (F). […]

[2] = target: T2, human TAS2R7 E264^7.32Q mutant (Homo sapiens, UniProt Q9NYW3, E264Q); assay: Calcium mobilization assay, TAS2R7 mutant E264Q; format: cell-based; settings: 20 mM metal ions except 0.16 mM Al2(SO4)3; cromolyn 10 mM; Figure 6C
T2 construct: signal peptide: first 45 amino acid residues of rat somatostatin receptor 3 (N); expressed in transfected cells; host or cells: HEK293 PEAKrapid (ATCC CRL-2828), transient, co-transfected with Gα16-gust44
T2 sequence (Q9NYW3 1-318 E264Q): T1 sequence (Q9NYW3 1-318 E271Q) with E264Q, Q271E
Source text: as §1, §2, §3

[3] = target: T3, human TAS2R7 E264^7.32K mutant (Homo sapiens, UniProt Q9NYW3, E264K); assay: Calcium mobilization assay, TAS2R7 mutant E264K; format: cell-based; settings: 20 mM metal ions except 0.16 mM Al2(SO4)3; cromolyn 10 mM; Figure 6B
T3 construct: signal peptide: first 45 amino acid residues of rat somatostatin receptor 3 (N); expressed in transfected cells; host or cells: HEK293 PEAKrapid (ATCC CRL-2828), transient, co-transfected with Gα16-gust44
T3 sequence (Q9NYW3 1-318 E264K): T1 sequence (Q9NYW3 1-318 E271Q) with E264K, Q271E
Source text: as §1
(§4) Human embryonic kidney 293 (PEAKrapid, ATCC # CRL-2828) cells were cultured in Opti-MEM medium with 4% fetal bovine serum. One day before transfection, cells were seeded on a 96-well plate at a density of 25 000 per well. Cells were then transiently transfected with a TAS2R construct (0.1 µg/well) along with a G protein Gα16-gust44 (0.1 µg/well) construct by Lipofectamine 2000 (0.5 µl/well). For controls, only Gα16-gust44 was used (mock transfection). Twenty-four hours after transfection, cells were washed with HBSS including 10 mM HEPES and loaded with Fluo-4 in the dark for 1 h. After incubation, cells were washed 2 times with HBSS (including 10 mM HEPES), incubated in the dark for another 30 min, and then washed with assay solution once more before running the assay using a FlexStation III reader. Relative fluorescence units (excitation at 494 nm, emission at 516 nm, and auto cutoff at 515 nm) were read every 2 s for 2 min. Calcium mobilization traces were recorded.
(§5) Calcium mobilization traces were raw data obtained from single wells. Changes in fluorescence (ΔF) were calculated as the peak fluorescence minus baseline fluorescence ([Lei et al. 2015]). The calcium mobilization was quantified as the percentage of change (ΔF) relative to baseline (F). […] Calcium mobilization traces and bar graphs along with dose-dependent plots were all generated by GraphPad Prism 7. Analysis of variance with Dunnett’s multiple comparisons test was used for statistical analysis. *P < 0.05.
To assess the importance of these residues, we performed site-directed mutagenesis. We mutated the negatively charged residues E16^1.42, E264^7.32, and E271^7.39 to Q (glutamine), K (lysine), or L (leucine). The facing H94^3.37 was mutated to F (phenylalanine). HEK293 cells that expressed mutant receptors along with Gα16-gust44 were examined for their responses to metal ions (20 mM for all except 0.16 mM Al2(SO4)3) and cromolyn (10 mM, as a positive control) to assess receptor’s function. To determine the expression level of each receptor, we stained the wild-type or mutant receptor-transfected cells using an anti-HSV antibody since all the receptors are tagged with HSV at c-terminal. […]

[4] = target: T4, human TAS2R7 E264^7.32L mutant (Homo sapiens, UniProt Q9NYW3, E264L); assay: Calcium mobilization assay, TAS2R7 mutant E264L; format: cell-based; settings: 20 mM metal ions except 0.16 mM Al2(SO4)3; cromolyn 10 mM; Figure 6B
T4 construct: signal peptide: first 45 amino acid residues of rat somatostatin receptor 3 (N); expressed in transfected cells; host or cells: HEK293 PEAKrapid (ATCC CRL-2828), transient, co-transfected with Gα16-gust44
T4 sequence (Q9NYW3 1-318 E264L): T1 sequence (Q9NYW3 1-318 E271Q) with E264L, Q271E
Source text: as §1, §4
as §5, with “0.05. […]” for “0.05.”

[5] = test system: mock-transfected HEK293 cells (Gα16-gust44 only); assay: Calcium mobilization assay, mock-transfected cells (Gα16-gust44 only); format: cell-based, human; settings: any concentration tested (cromolyn 10 mM)
Description: as §4
as §5, with “Analysis of variance with Dunnett’s multiple comparisons test was used for statistical analysis. *P < 0.05.” left out

Response of E271 to glutamine mutant receptor [1]: slightly reduced responses
Response of E264Q mutant receptor [2]: reduced responses
Response of E264K mutant receptor [3]: reduced
Response of E264L mutant receptor [4]: reduced
SMILES: O=C(O)c1cc(=O)c2c(OCC(O)COc3cccc4oc(C(=O)O)cc(=O)c34)cccc2o1 [cromolyn, reference compound]
Response of mock-transfected cells [5]: not
